In patent US9284283B2, “Macrocyclic compounds for modulating IL-17” (ENSEMBLE THERAPEUTICS CORPORATION, priority 2012, dated 2016):
Several values for one entry are separate records, joined by “and”; a condition that tells them apart may be missing. Equal entries are not always repeated.

Legend:
[1] = tested on: murine collagen-induced arthritis; assay: Mouse collagen-induced arthritis (CIA) model; format: in vivo; settings: for reduction of overall mean Clinical Arthritis Score: FIG. 11
Experimental: Exemplary compounds of the invention were evaluated in a murine CIA model. […] mice (10/group) were anaesthetized with Isoflurane, shaved at the base of the tail, and injected intradermally with 150 μL of Freund's Complete Adjuvant (Sigma) containing bovine type II collagen (Elastin Products, Owensville, Mo.) (2 mg/mL) at the base of the tail on day 0 and again on day 21. On study days 24-25, onset of arthritis occurred and mice were randomized into treatment groups. Randomization into each group was done after swelling was obviously established in at least one paw (score of 1), and attempts were made to ensure approximately equal mean scores of 0.25 across the groups at the time of enrollment. Once a day oral treatment with 10 or 30 mg/kg of test compound in 20% Cremophor EL was initiated after enrollment and continued once a day as indicated through arthritis day 10. Mice were terminated on day 11. Clinical scores were calculated for each of the paws (right front, left front, right rear, and left rear) on arthritis days 1-11 and the results were summarized as a reduction in clinical arthritis score for all paws over the time period of dosing.

DNFB-treated BALB/c mice = assay: Murine model of delayed hypersensitivity (DNFB-induced ear edema); format: in vivo, mouse; settings: for Reduction in edema (%): ear weight 24 h after DNFB challenge
Experimental: We used a murine model of fluorodinitrobenzene (DNFB)-induced ear edema to test the anti-inflammatory activity of both orally dosed and intraperitoneally dosed exemplary compounds of the invention. BALB/c mice (Harlan Sprague-Dawley, Inc., male, 6-8 weeks old) were topically treated on their shaved abdomen with 30 μL of 0.5% 1-fluoro-2,4-dinitrobenzene (DNFB) (4:1 acetone:olive oil) once on Day 0 and once on Day 1.
For oral dosing (“PO”), exemplary compounds of the invention were either suspended at 3 mg/mL in 20% Cremophor EL (Sigma) (20:80; Cremophor:water) or dissolved at 1 mg/mL or 3 mg/mL in D-α-tocopherol polyethylene glycol 1000 succinate (TPGS; Sigma)/PEG-400/water (20:60:20). For intraperitoneal dosing (“IP”), exemplary compounds of the invention were dissolved in DMSO at a concentration of 5 mg/mL. On day 7, the test compound was administered (PO at either 10 mg/kg or 30 mg/kg; IP at 1, 3, or 10 mg/kg) to DNFB-treated mice. Commercially available anti-mouse IL-17A (BioLegend) administered intraperitoneally at 5 mg/kg in PBS was used as a positive control. Thirty minutes later, 20 μL of 0.2% DNFB was applied to the right ear of animals and vehicle ([…]:olive oil) was applied to the left ear. One and four hours after DNFB challenge, a subset of mice was exsanguinated and plasma prepared from the blood. Twenty-four hours after challenge, the remaining mice were euthanized, and their ears were removed and weighed to determine the amount of edema. Plasma was assayed for interleukin-6, TNF-α, CXCL1, and interferon-γ concentrations using commercially-available assays.

SMILES: O=C1CNC(=O)[C@@H](Cc2ccc(NC(=O)[C@H](Cc3ccccc3Cl)NC(=O)Cc3ccccc3)cc2)NC(=O)CC2(CCCC2)CC(=O)NCCCCCN1 [Compound 159]
- reduction of overall mean Clinical Arthritis Score ([1]; orally 10 mg/kg): 6%
- reduction of overall mean Clinical Arthritis Score ([1]; orally 30 mg/kg): 11%
- reduction in mean Clinical Arthritis Score on days 27-30 as compared to vehicle controls ([1]; orally 10 and 30 mg/kg in 20% Cremophor EL, FIG. 10): superior reduction
- reduction in TNF-α, IFN-γ and edema as compared to a PBS control or DMSO control (DNFB-treated BALB/c mice; i.p. 10 mg/kg, FIG. 1): statistically significant reduction
- reduction in IL-6, IFN-γ and edema compared to a DMSO control (DNFB-treated BALB/c mice; i.p. at 1 mg/kg, 3 mg/kg, or 10 mg/kg, FIG. 2): statistically significant reduction
- Reduction in edema (%) (DNFB-treated BALB/c mice; ip, 1 mg/kg): 17%
- IFNγ Reduction (%) (DNFB-treated BALB/c mice; ip, 1 mg/kg, plasma): 54.2%
- IL6 Reduction (%) (DNFB-treated BALB/c mice; ip, 1 mg/kg, plasma): 62.6%
- Reduction in edema (%) (DNFB-treated BALB/c mice; ip, 3 mg/kg): 44%
- IFNγ Reduction (%) (DNFB-treated BALB/c mice; ip, 3 mg/kg, plasma): 85.5%
- IL6 Reduction (%) (DNFB-treated BALB/c mice; ip, 3 mg/kg, plasma): 72.2%
- Reduction in edema (%) (DNFB-treated BALB/c mice; ip, 10 mg/kg): 54.1% and 54%
- IL6 Reduction (%) (DNFB-treated BALB/c mice; ip, 10 mg/kg, plasma): 78.6%
- TNFα Reduction (%) (DNFB-treated BALB/c mice; ip, 10 mg/kg, plasma): 21.7%
- IL-6, IFN-γ, and edema, dose-dependent (DNFB-treated BALB/c mice; orally dosed in TPGS/PEG400/Water vehicle, FIG. 5): effectively reduced
- Reduction in edema (%) (DNFB-treated BALB/c mice; po, 10 mg/kg): 19.0%
- IFNγ Reduction (%) (DNFB-treated BALB/c mice; po, 10 mg/kg, plasma): 24.2%
- IL6 Reduction (%) (DNFB-treated BALB/c mice; po, 10 mg/kg, plasma): 29.8%
- Reduction in edema (%) (DNFB-treated BALB/c mice; po, 30 mg/kg): 53.7%
- IFNγ Reduction (%) (DNFB-treated BALB/c mice; po, 30 mg/kg, plasma): 64.5%
- IL6 Reduction (%) (DNFB-treated BALB/c mice; po, 30 mg/kg, plasma): 58.3%
